Experiment [1] is described as follows: Cytotoxicity against human MCF7/ADR cells. In kind it is functional. To be noted: NCI/ADR-RES, read-out: ED50 (the source's name).
The nature of experiment [2]: Cytotoxicity against human MCF7/ADR cells assessed as ratio of drug concentration to drug ED100 at 1.0 ug/ml after 6 days by BCA assay. The class given is functional, NCI/ADR-RES.
Experiment [3] in a line: Cytotoxicity against human MCF7/ADR cells assessed as ratio of drug concentration to drug ED100 at 0.8 ug/ml after 6 days by BCA assay. The class given is functional, NCI/ADR-RES.
A short description of experiment [4]: Cytotoxicity against human MCF7/ADR cells assessed as ratio of drug concentration to drug ED100 at 0.6 ug/ml after 6 days by BCA assay. The class given is functional, NCI/ADR-RES.
A short description of experiment [5]: Cytotoxicity against human MCF7/ADR cells assessed as ratio of drug concentration to drug ED100 at 0.3 ug/ml after 6 days by BCA assay. The class given is functional, NCI/ADR-RES.
The nature of experiment [6]: Cytotoxicity against human MCF7/ADR cells assessed as ratio of drug concentration to drug ED100 at 0.15 ug/ml after 6 days by BCA assay. The class given is functional, NCI/ADR-RES.
Experiment [7] concerns MCF/ADR. The experiment in a line: Reversal of P-gp-mediated multidrug resistance in human MCF/ADR cells assessed as ratio of doxorubicin ED50 without drug to doxorubicin ED50 with drug at 1.0 ug/ml after 6 days by BCA assay. In kind it is cell-based.
Experiment [8] has as its system MCF/ADR. Description: Reversal of P-gp-mediated multidrug resistance in human MCF/ADR cells assessed as ratio of doxorubicin ED50 without drug to doxorubicin ED50 with drug at 0.8 ug/ml after 6 days by BCA assay. In kind it is cell-based.
The test system of experiment [9] is MCF/ADR. Description: Reversal of P-gp-mediated multidrug resistance in human MCF/ADR cells assessed as ratio of doxorubicin ED50 without drug to doxorubicin ED50 with drug at 0.6 ug/ml after 6 days by BCA assay. The class given is cell-based.
Experiment [10] deals with MCF/ADR. The experiment in a line: Reversal of P-gp-mediated multidrug resistance in human MCF/ADR cells assessed as ratio of doxorubicin ED50 without drug to doxorubicin ED50 with drug at 0.3 ug/ml after 6 days by BCA assay. The class given is cell-based.
Experiment [11] relates to MCF/ADR. The experiment in a line: Reversal of P-gp-mediated multidrug resistance in human MCF/ADR cells assessed as ratio of doxorubicin ED50 without drug to doxorubicin ED50 with drug at 1.15 ug/ml after 6 days by BCA assay. In kind it is cell-based.
Experiment [12] is described as follows: Cytotoxicity against human MCF7/ADR cells assessed as ratio of drug concentration to drug ED100 at 10 ug/ml after 6 days by BCA assay. The class given is functional, NCI/ADR-RES.
The nature of experiment [13]: Cytotoxicity against human MCF7/ADR cells assessed as ratio of drug concentration to drug ED100 at 8 ug/ml after 6 days by BCA assay. The class given is functional, NCI/ADR-RES.
Experiment [14] is described as follows: Cytotoxicity against human MCF7/ADR cells assessed as ratio of drug concentration to drug ED100 at 6 ug/ml after 6 days by BCA assay. The class given is functional, NCI/ADR-RES.
A short description of experiment [15]: Cytotoxicity against human MCF7/ADR cells assessed as ratio of drug concentration to drug ED100 at 3 ug/ml after 6 days by BCA assay. The class given is functional, NCI/ADR-RES.
Experiment [16] can be described thus: Cytotoxicity against human MCF7/ADR cells assessed as ratio of drug concentration to drug ED100 at 1.5 ug/ml after 6 days by BCA assay. In kind it is functional, NCI/ADR-RES.

Converted amounts (≈) assume the structure as drawn.

As to `COc1ccc2cc1Oc1ccc(cc1)C[C@H]1c3c(cc(OC)c4c3Oc3cc5c(cc3O4)CCN(C)[C@H]5C2)CCN1C` [ISOTRILOBINE], the EC50 in experiment [1] was 2 µg/mL (≈ 3.47 µM). Also, the Activity is listed as 0.2 in experiment [2]; 0.16 in experiment [3]; 0.12 in [4]; 0.06 in experiment [5]; 0.03 in experiment [6]. For the same molecule, the Ratio ED50 amounted to 70 in the experiment with MCF/ADR [7]; 57 in the experiment with MCF/ADR [8]; 32 with MCF/ADR [9]; 10 in the experiment on MCF/ADR [10]; 5 with MCF/ADR [11].

For the molecule `COc1ccc2cc1Oc1ccc(cc1)C[C@@H]1NCCc3cc(OC)c4c(c31)Oc1cc3c(cc1O4)CCN(C)[C@H]3C2` [TRILOBINE], the EC50 in experiment [1] was determined as 1 µg/mL (≈ 1.78 µM). The Activity in experiment [2] is 0.17; in experiment [3] it was 0.13; in experiment [4], 0.1; in [5] it was 0.05; with MCF/ADR [7] it was 2; in the experiment with MCF/ADR [8], 2. The Activity was found to be 1.5 in the experiment on MCF/ADR [9] and 1 with MCF/ADR [10].

Take `COc1ccc(CCN(C)CCCC(C#N)(c2ccc(OC)c(OC)c2)C(C)C)cc1OC` (stereo not given) [VERAPAMIL]: the Activity in experiment [12] turned out to be 0.19; in experiment [13], 0.15; in experiment [14] it was 0.12; in experiment [15], 0.06; in [16], 0.03.

For the origin of these results see ChEMBL document CHEMBL1159299, “Multidrug-resistance modulators from Stephania japonica” (1997).
